These results are taken from PubChem BioAssay (NCI).

Structures are written as SMILES. Several values for one entry are separate records, joined by “and”; a condition that tells them apart may be missing. Equal entries are not always repeated.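 These data come from cells grown in 96-well plates and exposed to compound for 48 hours at five concentrations. The concentration for 50% growth inhibition is given as GI50. Definition used: TGI = concentration required for complete inhibition of growth.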 A value given as a limit tells only on which side of the number the result lay.

Among the test systems are SNB-19 CNS; NCI/ADR-RES ovarian; SN12C renal; IGROV1 ovarian; CAKI-1 renal; CCRF-CEM leukemia; NCI-H460 lung; SF-268 CNS; RXF 393 renal; U251 CNS.
What all share (test): NCI anticancer screen, dose series, 48 h

Consider `N#C/C(=C\c1ccc(F)cc1)n1nc2cccc(F)c2n1`, for which the GI50 with SNB-19 CNS was 6.67 µM; in the assay on NCI/ADR-RES ovarian it was 2.99 µM; in the assay with SN12C renal it was 3.84 µM; with IGROV1 ovarian, 5.01 µM; with CAKI-1 renal it was 5.17 µM; in the assay with CCRF-CEM leukemia, 3.24 µM. The GI50 with NCI-H460 lung was 3.01 µM; in the assay on SF-268 CNS it was 4.99 µM; in the assay on RXF 393 renal, 2.72 µM; with U251 CNS, 3.52 µM. In addition, the TGI is greater than 100 µM in the assay on SNB-19 CNS; 14.8 µM in the assay with NCI/ADR-RES ovarian; greater than 100 µM with SN12C renal; greater than 100 µM in the assay with IGROV1 ovarian; greater than 100 µM with CAKI-1 renal; greater than 100 µM with CCRF-CEM leukemia. Besides, the TGI in the assay on NCI-H460 lung was 12.9 µM; with SF-268 CNS, greater than 100 µM; in the assay with RXF 393 renal, 27 µM; in the assay with U251 CNS, greater than 100 µM.
Turning to `O=C(O)c1ccc(C(=O)O)c(C(=O)O)c1.[NH-]C1CCCCC1[NH-].[Pt+2]`, the GI50 was 11 µM in the assay with SNB-19 CNS; 3.56 µM in the assay on NCI/ADR-RES ovarian; 3.19 µM in the assay with SN12C renal; 4.57 µM in the assay on IGROV1 ovarian; 1.86 µM in the assay on CAKI-1 renal; 0.858 µM and 4.49 µM with CCRF-CEM leukemia. In addition, the GI50 is 0.889 µM in the assay on NCI-H460 lung, 7.54 µM in the assay on SF-268 CNS, 9.32 µM in the assay with RXF 393 renal and 8.84 µM in the assay on U251 CNS. The TGI with SNB-19 CNS was greater than 93.8 µM; with NCI/ADR-RES ovarian it was 60.5 µM; in the assay on SN12C renal, 66.8 µM; in the assay with IGROV1 ovarian, 44.6 µM; in the assay with CAKI-1 renal, 32.7 µM; with CCRF-CEM leukemia, 66.8 µM. Besides, the TGI in the assay with NCI-H460 lung is 19.1 µM; in the assay on SF-268 CNS it was greater than 87.4 µM; with RXF 393 renal, 44.7 µM; with U251 CNS, 59.1 µM.
`Cn1c(NCC(CN2CCCC2)OC(=O)c2ccccc2)cc(=O)n(C)c1=O` (stereo not given): the GI50 in the assay with SNB-19 CNS was greater than 100 µM; with NCI/ADR-RES ovarian it was greater than 100 µM; with SN12C renal, greater than 100 µM; in the assay with IGROV1 ovarian, greater than 100 µM; in the assay with CAKI-1 renal it was greater than 100 µM; in the assay on CCRF-CEM leukemia, 0.0757 µM. Further, the GI50 in the assay with NCI-H460 lung, in the assay on SF-268 CNS, with RXF 393 renal and in the assay on U251 CNS was greater than 100 µM in each case. For the same compound, the TGI is greater than 100 µM in the assay with SNB-19 CNS; greater than 100 µM in the assay with NCI/ADR-RES ovarian; greater than 100 µM in the assay with SN12C renal; greater than 100 µM with IGROV1 ovarian; greater than 100 µM with CAKI-1 renal; 4.06 µM with CCRF-CEM leukemia. The TGI in the assay with NCI-H460 lung, in the assay with SF-268 CNS, with RXF 393 renal and in the assay on U251 CNS was greater than 100 µM each time.
Take `O=C(Nc1ccc(I)cc1)c1cccc([N+](=O)[O-])c1O`: the GI50 was 3.68 µM in the assay with SNB-19 CNS; 2.94 µM with NCI/ADR-RES ovarian; 3.54 µM with SN12C renal; 6.15 µM with IGROV1 ovarian; 2.91 µM in the assay with CAKI-1 renal; 2.76 µM with CCRF-CEM leukemia. The GI50 in the assay with NCI-H460 lung is 3.86 µM; in the assay with SF-268 CNS it was 4.15 µM; in the assay on RXF 393 renal it was 2.49 µM; in the assay with U251 CNS, 3.39 µM. The TGI in the assay with SNB-19 CNS was greater than 100 µM; in the assay on NCI/ADR-RES ovarian it was greater than 100 µM; in the assay with SN12C renal, greater than 100 µM; in the assay with IGROV1 ovarian it was greater than 100 µM; with CAKI-1 renal, greater than 100 µM; in the assay with CCRF-CEM leukemia, 29.7 µM. For the same compound, the TGI was greater than 100 µM with NCI-H460 lung, greater than 100 µM in the assay with SF-268 CNS, 9.09 µM with RXF 393 renal and greater than 100 µM with U251 CNS.
Consider `O=C1/C(=C\c2ccccc2)CN(C(=O)c2ccccc2)C/C1=C\c1ccccc1`, for which the GI50 in the assay on SNB-19 CNS is 3.79 µM; in the assay with NCI/ADR-RES ovarian, 3.69 µM; in the assay with SN12C renal, 1.9 µM; in the assay on IGROV1 ovarian, 2.66 µM; in the assay on CAKI-1 renal, 2.74 µM; in the assay with CCRF-CEM leukemia, 1.43 µM. Also, the GI50 in the assay with NCI-H460 lung is 2.8 µM; with SF-268 CNS it was 3.4 µM; in the assay on RXF 393 renal, 1.68 µM; with U251 CNS it was 1.92 µM. Further, the TGI in the assay with SNB-19 CNS amounted to 15.1 µM; in the assay with NCI/ADR-RES ovarian, 37.6 µM; in the assay on SN12C renal it was 4.31 µM; with IGROV1 ovarian, 6.57 µM; with CAKI-1 renal it was 11.1 µM; with CCRF-CEM leukemia, 6.49 µM. For the same compound, the TGI in the assay with NCI-H460 lung is 8.48 µM; with SF-268 CNS it was 14.8 µM; with RXF 393 renal it was 3.21 µM; in the assay with U251 CNS, 4.44 µM.
